Source: patent publication US4874891A, “Open "D" ring hormone analogs” (Washington University, priority 1986, dated 1989)

Target: T1, 17β-HSD (Homo sapiens, UniProt P14061)
T1 sequence (P14061 1-328): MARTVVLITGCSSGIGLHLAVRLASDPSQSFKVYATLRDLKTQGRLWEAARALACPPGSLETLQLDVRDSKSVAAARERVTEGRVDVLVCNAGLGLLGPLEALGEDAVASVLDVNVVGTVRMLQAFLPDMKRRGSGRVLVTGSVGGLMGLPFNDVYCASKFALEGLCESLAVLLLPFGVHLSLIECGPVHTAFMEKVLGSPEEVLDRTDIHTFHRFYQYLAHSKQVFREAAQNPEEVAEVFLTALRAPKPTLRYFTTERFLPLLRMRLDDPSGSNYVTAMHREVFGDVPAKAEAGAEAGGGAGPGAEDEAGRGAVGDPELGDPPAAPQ
Test: Time-dependent inactivation of 17β-HSD (NADH production at 340 nm with estradiol and NAD+)
Format: biochemical
Method: The compounds of the invention prepared as described above were tested for their ability to affect the reaction catalyzed by 17β-HSD, as follows.
Approximately 5 μl of a 2-20 mM solution of the test compound in absolute alcohol was added to the incubation mixture, which contained:
200 μM NAD^+ (100 μl of 2 mM stock);
795 μl 100 mM sodium carbonate buffer (pH 9.2, containing 20% glycerol) or 795 μl phosphate buffer (pH 7.4, 20% glycerol);
90 μg of enzyme (supplied as 100 μl of 0.9 μg/μl stock).
Aliquots were removed at intervals and added to 950 μl of assay cocktail, which contained:
100 mM sodium carbonate buffer;
60 μM estradiol in propylene glycol stock;
0.8% human serum albumin.
The activity remaining in the incubation mixture was assessed by NADH production in the assay cocktail monitored by adsorption at 340 nm every 15 sec for 2 min with an automated spectrophotometer.
All aqueous stock solutions were prepared in 100 mM sodium carbonate buffer, 20% glycerol, to maintain enzyme stability. Where additional components were added, such as glutathione, volumes were adjusted accordingly. To assess loss of enzyme activity independent of the test compound, 5 μl ethanol was added in place of steroid stock solution to the assay cocktail.
When aliquots were withdrawn less than 3 min apart, the aliquot was quenched in 900 μl assay buffer without NAD^+ and supplemented with 5 mM glutathione: after all aliquots were withdrawn, samples were assayed by adding NAD^+ (50 μl of a 4 mM stock) and monitored as above.
Compounds of the invention were evaluated in terms of Km, Vmax, and Rp.

## C#CC(O)C1(C)CCC2c3ccc(O)cc3CCC2C1 (stereo not drawn) [--CH(OH)C.ident.CH, [2S-[2α(S*),4aα,10aβ]]-α-Ethynyl-1,2,3,4,4a,9,10,10a-octahydro-7-hydroxy-2-methyl-2-phenanthrenemethanol]
5 mM glutathione
  effect of glutathione on inactivation of the enzyme: 5 mM glutathione protects the enzyme from inactivation

## C#CC(=O)[C@@]1(C)CC[C@@H]2c3ccc(O)cc3CC[C@H]2C1 [--COC.ident.CH, [2S-(2α,4aα,10aβ)]-1-(1,2,3,4,4a,9,10,10a-Octahydro-7-hydroxy-2-methyl-2-phenanthrenyl)-2-propyn-1-one]
Presence of NAD+
  substrate for the enzyme: not a substrate for the enzyme in the presence of NAD^+
Presence of NADH
  effect of NADH on inactivation of the enzyme: inactivation of the enzyme is inhibited by the presence of NADH
